The source of these data is patent US20250099494A1, “PHOSPHONIC ACID COMPOUND AND PRODRUG THEREOF, AND PREPARATION METHODS FOR AND USES OF PHOSPHONIC ACID COMPOUND AND PRODRUG THEREOF” (HAIHE BIOPHARMA CO., LTD., priority 2022, published 2025).

The nature of data set [1]: Pharmacokinetic test experiment of mice. The class given is in vivo, ICR mice. As to conditions: after oral administration. As to the method:
1. In each administration mode, 9 healthy ICR mice male, weighing 30-35 g, were randomly divided into 3 groups (M1, M2, M3) with 3 mice in each group. […] Feeding uniformly 4 hours after administration.

The target in another data set is hENPP1-ECD-His (Homo sapiens (Human), UniProt P22413). The data set is described as follows: ENPP1 inhibitory activity, substrate 2',3'-cGAMP detection (AMP-Glo). As to conditions: read-out: c-GAMP (IC50, nM), inhibitory effect on ENPP1.
A short description of data set [2]: Pharmacokinetic test experiment for rats. The class given is in vivo, SD rats. As to conditions: p.o. prodrug compound 7 (5 mg/kg) vs i.v. compound 1 (1 mg/kg). As to the method:
1. Six SD rats of 6-8 weeks old, male, were taken in each administration mode, and the tested compound was administered by gavage (5 mg/kg) and intravenous injection (1 mg/kg), respectively: fasting for 12 hours before the experiment and drinking water freely. Feeding uniformly 4 hours after administration.
Plasma collection and processing: at the above set time points, 150-200 μL of blood was collected via the plexus jugularis or a suitable part, placed in EDTA-K2 test tube, centrifuged at 3500 rpm for 10 min, plasma was separated, and frozen at −20° C. in a refrigerator.
LC/MS/MS method was used to determine the concentration of compounds in rats plasma. The pharmacokinetic parameters after administration were calculated using a non-compartmental model using Phoenix 8.3 software (Pharsight, USA).

Data set [3] can be described thus: Pharmacokinetic test experiment for dogs. Particulars: beagle dogs, p.o. prodrug compound 7 (2 mg/kg) vs i.v. compound 1 (1 mg/kg). As to the method: Feeding uniformly 4 hours after administration.
Blood was collected continuously, with 3 animals collected at each time point. Plasma collection and processing: at the above set time points, 1,000 μL of blood was collected via the plexus jugularis or a suitable part, placed in EDTA-K2 test tube, centrifuged at 3500 rpm for 10 min, plasma was separated, and frozen at −20° C. in a refrigerator.
LC/MS/MS method was used to determine the concentration of compounds in the beagle dogs plasma. The pharmacokinetic parameters after administration were calculated using a non-compartmental model using Phoenix 8.3 software (Pharsight, USA).

The conditions of data set [4]: mice, reported by the literature; cited from earlier work.

Chain of hENPP1-ECD-His (P22413 98-925): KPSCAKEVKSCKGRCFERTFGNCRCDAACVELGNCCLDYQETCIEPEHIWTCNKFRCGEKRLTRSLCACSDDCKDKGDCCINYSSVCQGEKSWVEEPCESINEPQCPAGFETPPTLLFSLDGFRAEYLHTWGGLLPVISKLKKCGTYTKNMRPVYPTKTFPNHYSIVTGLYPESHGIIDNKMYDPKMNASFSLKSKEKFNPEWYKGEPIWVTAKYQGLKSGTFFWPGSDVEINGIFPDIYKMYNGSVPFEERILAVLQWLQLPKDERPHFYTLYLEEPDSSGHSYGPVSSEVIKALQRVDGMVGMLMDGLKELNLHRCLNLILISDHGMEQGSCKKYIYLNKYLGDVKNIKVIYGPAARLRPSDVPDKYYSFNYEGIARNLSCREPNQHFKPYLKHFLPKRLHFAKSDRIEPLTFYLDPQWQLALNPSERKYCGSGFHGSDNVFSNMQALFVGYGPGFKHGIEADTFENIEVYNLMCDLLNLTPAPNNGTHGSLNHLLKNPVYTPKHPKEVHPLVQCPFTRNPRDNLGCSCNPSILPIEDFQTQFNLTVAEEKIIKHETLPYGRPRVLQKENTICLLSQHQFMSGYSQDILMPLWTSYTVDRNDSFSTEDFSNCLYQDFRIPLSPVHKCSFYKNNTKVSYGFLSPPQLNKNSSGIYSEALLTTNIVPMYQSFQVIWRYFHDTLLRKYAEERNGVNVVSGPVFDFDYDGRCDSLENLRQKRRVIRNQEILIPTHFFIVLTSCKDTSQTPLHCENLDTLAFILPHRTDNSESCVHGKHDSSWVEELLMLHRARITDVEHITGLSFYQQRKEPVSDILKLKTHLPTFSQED
Protocol for hENPP1-ECD-His: The ENPP1 inhibitory activity of the compound of the present disclosure was tested in substrate 2′,3′-cGAMP detection.
Experimental objective: based on the established experimental method, the inhibitory IC50 value of the compound in the present application on ENPP1 was detected using 2′,3′-cGAMP as the substrate.
2. Preparation of compound concentration gradient: the tested compound was dissolved in DMSO (dimethyl sulfoxide) to an initial concentration of 10 μM, diluted at 3 times, with 10 concentrations, single well or multi-well testing was set. […] The compound was diluted by gradient in a 384 well plate to a solution with the final concentration of 1000 times, and then 5 nL of the solution was transferred to a 384 well reaction plate for testing using Echo550.5 nL of 100% DMSO was transferred from the smallest well and the largest well.
6. The reaction solution was centrifuged at 1000 rpm for 1 minute and incubated at room temperature for 15 minutes.
7. 2.5 μL 2× substrate solution was added to each well of the reaction plate, centrifuged at 1000 rpm for 1 minute, and incubated at room temperature for 60 minutes.
8. 5 μL of R1 solution (from AMP-Glo™ Kit) was added to each well of the reaction plate, centrifuged at 1000 rpm for 1 minute and incubated at room temperature for 120 minutes.
9. 10 μL of R2 solution (from AMP-Glo™ Kit) was added to each well of the reaction plate, centrifuged at 1000 rpm for 1 minute and incubated at room temperature for 30 minutes.
The inhibition rate is calculated using the following formula: • inhibition rate %=(maximum signal−compound signal)/(maximum signal−minimum signal)×100 • wherein the “minimum signal” represents the mean value of the negative control well, and the “maximum signal” represents the mean value of the positive control well.
Using the log value of concentration as the X-axis and the percentage inhibition rate as the Y-axis, the dose-response curve was fitted using the log(inhibitor) vs. response-variable slope of analysis software GraphPadPrism5 to obtain the inhibitory IC50 value of the compound of the present disclosure on enzyme activity.

On to `COc1ccc2c(Oc3ccc(CP(=O)(OCOC(=O)OC(C)C)OCOC(=O)OC(C)C)cc3)ccnc2n1` [Compound 8], for which, in data set [1], the “time of conversion of prodrug to parent drug compound 1 in mice plasma” value was at most 5 min. Turning to `COc1ccc2c(Nc3ccc(CP(=O)(O)O)cn3)ccnc2n1` [Compound 21], the IC50 (commonly the concentration that inhibits the measured activity by half) at hENPP1-ECD-His is 5 nM. With `COc1ccc2c(Oc3cc(F)c(CP(=O)(O)O)cc3F)ccnc2n1` [Compound 6], on hENPP1-ECD-His, the IC50 was found to be 11 nM. For `COc1cc2ncnc(Nc3ccc(CP(=O)(O)O)cc3)c2cc1OC` [STF22, reference compound], on hENPP1-ECD-His, the IC50 came to 63 nM. On to `COc1ccc2c(Nc3ccc(CP(=O)(O)O)cc3)ncnc2n1` [Compound 13], for which, at hENPP1-ECD-His, the IC50 came out at 0.94 nM.

As to `COc1ccc2c(Nc3ccc(CP(=O)(O)O)nc3)ccnc2n1` [Compound 20], the IC50 at hENPP1-ECD-His turned out to be 2.1 nM.

In the case of `COc1ccc2c(Oc3ccc(CP(=O)(OCOC(=O)C(C)(C)C)OCOC(=O)C(C)(C)C)cc3)ccnc2n1` [Compound 7], the “time of conversion of prodrug to parent drug compound 1 in mice plasma” value in data set [1] is at most 5 min. Besides, the “Bioavailability Oral BA (% F)” value in data set [2] was determined as 40 % F; in data set [3], 21 % F. In the case of `COc1cccc2c(N3CCC(CCP(=O)(O)O)CC3)ncnc12` [STF32, reference compound], the “half-life of injection administration T1/2” value in data set [4] is given as 14 min. Besides, the IC50 on hENPP1-ECD-His amounted to 6.2 nM. In the case of `COc1ccc2c(Oc3cc(F)c(CP(=O)(O)O)c(F)c3)ccnc2n1` [Compound 5], on hENPP1-ECD-His, the IC50 stood at 11 nM. As for `COc1ccc2c(Oc3c(F)cc(CP(=O)(O)O)cc3F)ccnc2n1` [Compound 3], on hENPP1-ECD-His, the concentration for half-maximal inhibition (IC50) turned out to be 18 nM.

As for `COc1ccc2c(Oc3ccc(CCP(=O)(O)O)cc3)ccnc2n1` [Compound 23], the IC50 on hENPP1-ECD-His was 37 nM.
